According to article PMC4414331 (The Prostate, 2012):

Target: prostate-specific membrane antigen (PSMA) (Homo sapiens, UniProt Q04609)
Assay: purified PSMA, PABGgG hydrolysis by HPLC
Format: biochemical

prostate-specific membrane antigen (PSMA), sequence (Q04609 whole entry): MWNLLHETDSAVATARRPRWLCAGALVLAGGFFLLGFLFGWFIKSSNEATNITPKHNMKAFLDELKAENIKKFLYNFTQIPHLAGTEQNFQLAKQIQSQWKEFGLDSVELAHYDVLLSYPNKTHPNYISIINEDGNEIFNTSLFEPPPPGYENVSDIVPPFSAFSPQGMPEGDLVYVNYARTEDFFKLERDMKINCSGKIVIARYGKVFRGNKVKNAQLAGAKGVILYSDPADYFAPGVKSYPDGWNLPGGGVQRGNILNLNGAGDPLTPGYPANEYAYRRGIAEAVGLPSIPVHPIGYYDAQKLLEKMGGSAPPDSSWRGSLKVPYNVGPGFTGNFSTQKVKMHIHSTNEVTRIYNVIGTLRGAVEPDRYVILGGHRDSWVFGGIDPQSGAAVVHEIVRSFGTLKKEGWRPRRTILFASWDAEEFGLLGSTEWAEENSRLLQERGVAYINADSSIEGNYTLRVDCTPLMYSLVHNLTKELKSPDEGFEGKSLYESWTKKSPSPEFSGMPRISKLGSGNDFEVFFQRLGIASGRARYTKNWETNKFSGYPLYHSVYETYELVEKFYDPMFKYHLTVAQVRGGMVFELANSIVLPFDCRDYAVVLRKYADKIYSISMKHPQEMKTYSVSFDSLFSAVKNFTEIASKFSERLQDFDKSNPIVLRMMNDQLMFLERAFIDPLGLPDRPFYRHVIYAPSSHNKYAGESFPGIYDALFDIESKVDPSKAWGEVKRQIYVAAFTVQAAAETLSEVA

| Substance | IC50 [nM] |
| --- | --- |
| DBCO-PEG4-CTT-54.2 [compound 6] | 6.6 |
| DBCO-PEG4-CTT-54 [compound 5] | 1 |
